Experiments:
[1] = tested on: Bovine articular cartilage explants; assay: Chondroitin sulphate (sGAG) release from bovine cartilage explants, anabolic conditions; assay type: cell-based; conditions: for effect on accumulated chondroitin sulphate release day 10-23: Oligomin 200 and 400 μg/ml, glucosamine 400 μg/ml, T-ChOS 50-400 μg/ml, A 200 and 400 μg/ml; for accumulative chondroitin sulphate release day 17-24: combination experiment, IGF-1 100 ng/ml
Experimental: (§1) For cartilage explant experiments, aminosugar concentrations tested were as follows. Oligomin and T-ChOS, 50, 100, 200 and 400 μg/ml in the media. N-acetyl glucosamine (A) and glucosamine (D), 200 and 400 μg/ml in the media. A+D combination were 200 μg/ml each in the media.
(§2) Bovine articular cartilage explants cultures are used as a model for cartilage degenerative diseases that enables experiments in a robust and simple test-model/assay, where the effect of growth factors and drugs on cartilage metabolism can be investigated [ Olsen, A.K., et al., Anabolic and catabolic function of chondrocyte ex vivo is reflected by the metabolic processing of type II collagen. Osteoarthritis and Cartilage, 2007, 15(3): p. 335-342.].
(§3) The knees were opened under semi-sterile conditions in a LAF bench. Cuts of surface articular cartilage were removed in a one-movement-maneuver, removing only the outermost layer. Too deep cuts will contain underlying subchondral bone /chondrosteous material. Uniform explants were harvested from both femur and tibia. Explants from the cartilage situated at the chondyles were avoided. The explants were transferred into a Petri-dish containing PBS+pen/strep (penincillin/streptomycin).
(§4) The explants were individually weighed and transferred into a sterile 96 well plate under semi-sterile conditions in a flow-bench. Prior, the wells were filled with 200 μL PBS+pen/strep, to keep the explants wet after weighing. Then PBS was removed, and medium containing different types and concentration of aminosugars were applied to the wells, 200 μL/well, according to the set-up. Four explant replicates were used for each test. The plates were incubated at 37° C. and 5% CO2 with shaking 50 rpm. The plates were covered in a CO2 permeable plastic bag to limit/avoid contamination from spores. The conditioning medium was replaced every 2nd - 3rd day, and the supernatant was transferred into a new 96 wells plate and stored at −20° C. until end of experiment. Fresh medium different types and concentration of aminosugars were applied to the wells, 200 μL/well, according to the setup every 2nd- 3rd day.
For detection of sulfated glycosaminoglycans (sGAG) that is chondroitin sulphate release, the quantitative dye-binding assay for in vitro analysis of GAG release was used according to the manufacturer's instructions (Wieslab, S).

[2] = tested on: Bovine articular cartilage explants; assay: Collagen type II formation (PIINP ELISA) in bovine cartilage explants; assay type: cell-based; conditions: for effect on PIINP, day 22: Oligomin and T-ChOS 50-400 μg/ml, A and D 200 and 400 μg/ml
Experimental: as §1, §2, §3
as §4, with “The conditioning medium was replaced every 2nd - 3rd day, and the supernatant was transferred into a new 96 wells plate and stored at −20° C. until end of experiment. Fresh medium different types and concentration of aminosugars were applied to the wells, 200 μL/well, according to the setup every 2nd- 3rd day.” left out
Supernatants were measured for type II collagen formation (PIINP), for aggrecanase-mediated aggrecan degradation. […]
Collagen type II formation is measured by a specific ELISA assay based on an antibody that recognizes an epitope on the PIINP molecule outside the exon 2 (PIIANP). […]

[3] = tested on: human OA cartilage explant; assay: Collagen type II formation (PIINP) in human OA cartilage explants; assay type: cell-based; conditions: different concentrations
Experimental: Collagen type II formation is measured by a specific ELISA assay based on an antibody that recognizes an epitope on the PIINP molecule outside the exon 2 (PIIANP). Therefore the EUSA is not specific for the HA or the IIB form but reacts with both forms. Cartilage explants were obtained from a knee of a person suffering from osteoarthritis. Explants were kept in growth media under anabolic conditions for 25 days. Fresh media was applied every 2-3 days. Aminosugars (Oligomin, T-ChOS, A and D; different concentration) were kept in media from day 0 to day 25.

[4] = tested on: YKL-40; assay: Extracellular YKL-40 release in human cartilage explant media; assay type: cell-based; conditions: 400 μg/ml
Experimental: Cartilage explants were obtained from a knee of a person suffering from osteoarthritis. Explants were kept in growth media under anabolic conditions for 25 days. Fresh media was applied every 2-3 days. Aminosugars (Oligomin, T-ChOS, A and D; different concentration) were kept in media from day 0 to day 25. Since YKL-40 is a proposed receptor for the T-ChOS, the extracellular YKL-40 release was analyzed in media at day 4, 11, 15, 20 and 25 in explants treated with 400 μg/ml of T-ChOS, Oligomin and glucosamine (D). […] For the control there was a significant drop in the YKL-40 expression between day 10 and 20. […] Glucosamine had no effect (FIG. 7). […] This relationship disappeared when the T-ChOS group was excluded from the data (no linear regression).

[5] = tested on: human OA articular cartilage explants; assay: Cell viability by Alamar Blue, human OA articular cartilage explants; assay type: cell-based; conditions: linear regression p<0.05
Experimental: To ensure the specific and non-toxic action of aminosugars, the metabolic activity of chondrocytes were measured by Alamar Blue, which previously has shown to correlate to cell number and cell viability. Cartilage explants were obtained from a knee of a person suffering from osteoarthritis. Explants were kept in growth media under anabolic conditions for 25 days. Fresh media was applied every 2-3 days. Aminosugars (Oligomin, T-ChOS, A and D; different concentration) were kept in media from day 0 to day 25.

[6] = tested on: type II collagen arthritis in rats; assay: Type II collagen induced rheumatoid arthritis rat model, oral dosing; assay type: in vivo
Experimental: Animals used were 10 per group for arthritis-Induced groups, 4/group for non-induced control group), housed 4-5/cage. For the arthritis induction, the animals were anesthetized with Isoflurane and given subcutaneous/intradermal (SC/ID) injections of 300 μl of Freund's Incomplete Adjuvant (Difco, Detroit, Mich.), containing 2 mg/ml bovine type II collagen (Elastin Products, Owensville, Mo.), at the base of the tail and 2 sites on the back on days 0 and 6. Dosing of the various oligomer and/or monomer compositions by oral route (QD at 24 hr intervals) was initiated on day 0 of the study and continued through day 16. Animals were terminated on study day 17. Efficacy evaluation was based on ankle caliper measurements, expressed as area under the curve (AUC), terminal hind paw weights, and histopathologic evaluation of ankles and knees. For statistical analysis various inflammation calculations were performed for the ankle diameter data, Anova and t-tests (parametrical or non-parametrical tests) were applied according to software guidelines ([…]). All animals survived to study termination.

[7] = tested on: Bovine articular cartilage explants; assay: Extracted cartilage protein content, bovine explants; assay type: cell-based; conditions: combination experiment
Experimental: The cartilage was extracted to determine the cartilage content of various proteins, in comparison of that secreted to the medium.
Cartilage explants were frozen in liquid nitrogen. The frozen explants were pulverized using Bessman Tissue Pulverizer according to the instructions supplied by the manufacturer. The powder was placed in 14 ml tube using frozen scalpel. Ice-cold Digestive Buffer (50 mM Tris.HCL buffer, pH 7.4 containing 0.1M NaCL and 0.1% Triton X-100) was added and the solution homogenized for 30 sec using Polytron PT-MR 3000 homogenizer (Brinkmann, Littau-Switzerland).The homogenate was then centrifuged at 15,000 rpm for 20 min and the supernatant collected and stored at −80° C. until further analysis.

Compound	effect on accumulated chondroitin sulphate release day 10-23 [1]	effect on PIINP, day 22 [2]	effect on accumulated chondroitin sulphate release day 10-23 ([1]; listed as Glucosamine)	accumulative chondroitin sulphate release day 17-24 [1]	accumulated PIINP release (day 20 and day 24) ([2]; combination experiment, T-ChOS 50 and 400 μg/ml, T-ChOS 400 μg/ml + glucosamine 200 μg/ml, glucosamine 200 μg/ml, Oligomin 50-400 μg/ml)	effect on PIINP expression day 18-25 [3]	YKL-40 expression in media, late period (day 15-25) [4]	Cell-viability at day 25 (Alamar Blue), induction [5]	Summed knee scores, non-significant increase vs disease controls ([6]; 21 mg/kg D alone)	Inhibition of summed ankle histopathology parameters ([6]; T-ChOS 7.1 mg/kg (Group 3), D 21.4 mg/kg (Group 4), T-ChOS 7.1 + D 21.4 mg/kg (Group 5))	overall benefit in the rat arthritis study (summary) ([6]; T-ChOS 7.1 mg/kg alone, D-glucosamine 21.4 mg/kg alone)	accumulative ankle diameter (day 9-17) ([6]; T-ChOS 7.1 mg/kg, D 21.4 mg/kg, combination T-ChOS 7.1 + D 21.4 mg/kg)	extracted cartilage protein assay at day 24 [7]
CC(=O)N[C@H]1C(O)O[C@H](CO)[C@@H](O)[C@@H]1O (stereo partly shown) [N-acetyl glucosamine]	no significant effect	no effect	–	–	–	–	–	–	–	–	–	–	–
N[C@H]1C(O)O[C@H](CO)[C@@H](O)[C@@H]1O (stereo partly shown) [glucosamine]	significant reduction	no effect	same effect	neither T-ChOS nor glucosamine alone did have any significant effect	no effect	no effect	no effect	least	14%	12%	no beneficial effect	no effect	–
IGF-1: Insulin-like Growth Factor-1, 100 ng/ml, positive anabolic stimulation control	–	–	–	significant Increase	–	–	–	–	–	–	–	–	did not reveal any significant effect

— patent US20110212186A1, “COMPOSITION FOR TREATING AUTOIMMUNE DISORDERS” (priority 2008, published 2011)
